Results reported in US7786127B2, “Benzimidazole thiophene compounds” (Glaxo SmithKline LLC, priority 2005, dated 2010).
pIC50: −log10 of the molar value.

Legend:
Type in all cases: cell-based
[1] = test system: normal human foreskin fibroblasts (HFF); test: Methylene blue growth inhibition assay, HFF; details: Fibroblast, 72 h
Procedure: (§1) Generally, exponentially growing cell lines of different tumor origins, cultured in appropriate media containing 10% fetal bovine serum at 37° C. in a 5% CO2 incubator were plated at low density (less than 2000 cells/well) in 96-well plates. Twenty four hours post-plating, cells were treated with different concentrations of test compounds ranging from 10 uM to 0.04 nM. Several wells were left untreated as a control. Seventy two hours post-treatment, cell numbers were determined using 10 μl per well of methylene blue (Sigma M9140) (0.5% in 50:50 Ethanol:water). […] Plates were read on a microplate reader, measuring the OD at 620 nm. […]
(§2) In one assay, normal human foreskin fibroblasts (HFF), human colon (HCT116, RKO), lung (H460, A549) and breast (MCF7) tumor cell lines were cultured in high glucose DMEM (Life Technologies) containing 10% fetal bovine serum (FBS) at 37° C. in a humidified 5% CO2, 95% air incubator. Cells were harvested using trypsin/EDTA, counted using a haemocytometer, and plated in 100 μL of culture media per well, at the following densities, in a 96-well tissue culture plate (Falcon 3075): HFF 5,000 cells/well, HCT116 3,000 cells/well, RKO 2,500 cells/well, H460 2,500 cells/well, A549 5,000 cells/well, MCF7 4,000 cells/well. […] Optical density at 620 nm was measured on a microplate reader. […]

A549 = test: Methylene blue growth inhibition assay, A549; details: Homo sapiens, 72 h
Procedure: as §1, §2

HCT116 = test: Methylene blue growth inhibition assay, HCT116; details: Homo sapiens, HCT-116, 72 h
Procedure: as §1, §2

H460 = test: Methylene blue growth inhibition assay, H460; details: Homo sapiens, NCI-H460, 72 h
Procedure: as §1, §2

RKO = test: Methylene blue growth inhibition assay, RKO; details: Homo sapiens, 72 h
Procedure: as §1, §2

MCF7 = test: Methylene blue growth inhibition assay, MCF7; details: Homo sapiens, 72 h
Procedure: as §1, §2

Row | Compound | pIC50 [1] | pIC50 (A549) | pIC50 (HCT116) | pIC50 (H460) | pIC50 (RKO) | pIC50 (MCF7)
1 | C[C@@H](Oc1cc(-n2cnc3ccc(OC4CCN(C)CC4)cc32)sc1C(N)=O)c1ccccc1Cl [Example 8, 3-{[(1R)-1-(2-Chlorophenyl)ethyl]oxy}-5-{6-[(1-methyl-4-piperidinyl)oxy]-1H-benzimidazol-1-yl}-2-thiophenecarboxamide] | > 7.00 | > 7.00 | > 7.00 | > 7.00 | > 7.00 | 
2 | C[C@@H](Oc1cc(-n2cnc3ccc(OC4CCN(C)CC4)cc32)sc1C(N)=O)c1ccccc1C(F)(F)F [Example 7, 5-{6-[(1-Methyl-4-piperidinyl)oxy]-1H-benzimidazol-1-yl}-3-({(1R)-1-[2-(trifluoromethyl)phenyl]ethyl}oxy)-2-thiophenecarboxamide] | 6.00 to 7.00 | > 7.00 | > 7.00 | > 7.00 | > 7.00 | > 7.00
